In ChEMBL document CHEMBL1137510, “Discovery of potent T-type calcium channel blocker” (Bioorg Med Chem Lett, 2007):

Key:
Type in all cases: cell-based
[1] = target: Voltage-dependent T-type calcium channel subunit alpha-1G (Homo sapiens) (UniProt O43497); experiment: Inhibition of T-type calcium channel Cav3.1 alpha-1G subunit expressed in HEK293 cells assessed as calcium current at 10 uM by high throughput screening
HEK293 [2] = experiment: Selectivity for Alpha-1B N-type calcium channel over alpha-1G T-type calcium channel expressed in HEK293 cells at 10 uM; conditions: Homo sapiens
[3] = target: Voltage-dependent N-type calcium channel subunit alpha-1B (Homo sapiens) (UniProt Q00975); experiment: Inhibition of N-type calcium channel […] alpha-1B subunit expressed in HEK293 cells assessed as calcium current at 10 uM by patch-clamp assay
Chain of Voltage-dependent N-type calcium channel subunit alpha-1B (Homo sapiens) (Q00975 whole entry, looked up): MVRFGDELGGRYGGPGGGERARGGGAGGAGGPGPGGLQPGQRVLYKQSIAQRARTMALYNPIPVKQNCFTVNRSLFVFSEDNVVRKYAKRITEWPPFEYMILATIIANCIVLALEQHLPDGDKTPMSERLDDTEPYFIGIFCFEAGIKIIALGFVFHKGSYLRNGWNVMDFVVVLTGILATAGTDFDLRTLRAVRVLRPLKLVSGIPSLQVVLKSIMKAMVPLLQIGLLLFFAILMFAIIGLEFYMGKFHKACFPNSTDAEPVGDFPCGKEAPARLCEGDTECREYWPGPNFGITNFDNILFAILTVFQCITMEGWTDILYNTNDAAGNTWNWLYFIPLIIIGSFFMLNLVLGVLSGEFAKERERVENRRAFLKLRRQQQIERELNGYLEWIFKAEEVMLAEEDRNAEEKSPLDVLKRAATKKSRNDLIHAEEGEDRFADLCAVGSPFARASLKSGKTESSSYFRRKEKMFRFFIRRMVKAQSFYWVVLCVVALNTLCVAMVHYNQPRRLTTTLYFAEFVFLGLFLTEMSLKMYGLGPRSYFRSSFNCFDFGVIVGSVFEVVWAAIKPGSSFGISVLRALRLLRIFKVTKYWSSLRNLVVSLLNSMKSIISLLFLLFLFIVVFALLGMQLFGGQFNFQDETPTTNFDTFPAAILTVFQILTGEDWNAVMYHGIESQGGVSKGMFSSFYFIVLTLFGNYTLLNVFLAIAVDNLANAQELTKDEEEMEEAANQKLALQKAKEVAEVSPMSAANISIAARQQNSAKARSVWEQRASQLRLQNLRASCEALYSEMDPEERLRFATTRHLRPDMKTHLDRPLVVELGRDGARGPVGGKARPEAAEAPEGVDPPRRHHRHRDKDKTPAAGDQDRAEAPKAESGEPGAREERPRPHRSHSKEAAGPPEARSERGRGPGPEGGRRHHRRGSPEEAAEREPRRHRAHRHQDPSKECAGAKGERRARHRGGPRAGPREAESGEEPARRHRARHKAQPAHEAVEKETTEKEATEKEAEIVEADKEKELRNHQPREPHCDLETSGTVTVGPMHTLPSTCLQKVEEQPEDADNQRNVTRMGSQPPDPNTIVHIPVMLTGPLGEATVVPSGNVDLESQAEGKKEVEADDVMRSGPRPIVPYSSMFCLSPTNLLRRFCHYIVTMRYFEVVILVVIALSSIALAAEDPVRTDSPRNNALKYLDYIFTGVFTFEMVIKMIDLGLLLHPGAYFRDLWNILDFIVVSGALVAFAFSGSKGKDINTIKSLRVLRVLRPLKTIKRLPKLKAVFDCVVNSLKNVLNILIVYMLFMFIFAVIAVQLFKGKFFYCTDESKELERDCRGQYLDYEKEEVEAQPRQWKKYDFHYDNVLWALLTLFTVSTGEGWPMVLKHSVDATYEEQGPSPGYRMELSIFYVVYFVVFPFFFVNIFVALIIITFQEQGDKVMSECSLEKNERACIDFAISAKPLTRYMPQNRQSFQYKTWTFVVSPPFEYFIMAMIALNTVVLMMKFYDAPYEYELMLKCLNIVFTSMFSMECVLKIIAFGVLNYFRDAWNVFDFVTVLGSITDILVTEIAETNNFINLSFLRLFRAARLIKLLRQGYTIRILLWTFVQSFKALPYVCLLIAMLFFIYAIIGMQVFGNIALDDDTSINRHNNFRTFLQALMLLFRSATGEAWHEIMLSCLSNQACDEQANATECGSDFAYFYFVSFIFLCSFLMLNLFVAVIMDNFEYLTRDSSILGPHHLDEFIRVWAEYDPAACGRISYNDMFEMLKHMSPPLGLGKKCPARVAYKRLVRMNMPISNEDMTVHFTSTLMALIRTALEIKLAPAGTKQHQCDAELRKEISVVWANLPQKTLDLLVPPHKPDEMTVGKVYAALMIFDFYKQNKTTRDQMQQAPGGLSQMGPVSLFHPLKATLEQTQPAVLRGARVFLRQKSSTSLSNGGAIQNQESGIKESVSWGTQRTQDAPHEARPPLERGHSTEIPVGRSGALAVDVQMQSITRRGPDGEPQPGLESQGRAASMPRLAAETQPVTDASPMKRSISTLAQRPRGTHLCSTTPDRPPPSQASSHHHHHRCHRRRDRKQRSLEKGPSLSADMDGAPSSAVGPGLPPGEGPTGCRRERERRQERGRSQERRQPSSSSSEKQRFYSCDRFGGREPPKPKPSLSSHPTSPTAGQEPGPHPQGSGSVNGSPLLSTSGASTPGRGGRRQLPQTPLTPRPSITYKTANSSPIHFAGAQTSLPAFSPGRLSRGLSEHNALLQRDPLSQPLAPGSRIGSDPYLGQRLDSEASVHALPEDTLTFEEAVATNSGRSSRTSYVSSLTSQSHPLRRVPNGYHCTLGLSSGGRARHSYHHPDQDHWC

[4] = target: Voltage-dependent T-type calcium channel subunit alpha-1G (Homo sapiens) (UniProt O43497); experiment: Inhibition of T-type calcium channel Cav3.1 alpha-1G subunit expressed in HEK293 cells assessed as calcium current at 10 uM by patch-clamp assay
HEK293 [5] = experiment: Selectivity for alpha-1B N-type calcium channel over alpha1G T-type calcium channel expressed in HEK293 cells; conditions: Homo sapiens

Chain of Voltage-dependent T-type calcium channel subunit alpha-1G (Homo sapiens) (O43497 whole entry): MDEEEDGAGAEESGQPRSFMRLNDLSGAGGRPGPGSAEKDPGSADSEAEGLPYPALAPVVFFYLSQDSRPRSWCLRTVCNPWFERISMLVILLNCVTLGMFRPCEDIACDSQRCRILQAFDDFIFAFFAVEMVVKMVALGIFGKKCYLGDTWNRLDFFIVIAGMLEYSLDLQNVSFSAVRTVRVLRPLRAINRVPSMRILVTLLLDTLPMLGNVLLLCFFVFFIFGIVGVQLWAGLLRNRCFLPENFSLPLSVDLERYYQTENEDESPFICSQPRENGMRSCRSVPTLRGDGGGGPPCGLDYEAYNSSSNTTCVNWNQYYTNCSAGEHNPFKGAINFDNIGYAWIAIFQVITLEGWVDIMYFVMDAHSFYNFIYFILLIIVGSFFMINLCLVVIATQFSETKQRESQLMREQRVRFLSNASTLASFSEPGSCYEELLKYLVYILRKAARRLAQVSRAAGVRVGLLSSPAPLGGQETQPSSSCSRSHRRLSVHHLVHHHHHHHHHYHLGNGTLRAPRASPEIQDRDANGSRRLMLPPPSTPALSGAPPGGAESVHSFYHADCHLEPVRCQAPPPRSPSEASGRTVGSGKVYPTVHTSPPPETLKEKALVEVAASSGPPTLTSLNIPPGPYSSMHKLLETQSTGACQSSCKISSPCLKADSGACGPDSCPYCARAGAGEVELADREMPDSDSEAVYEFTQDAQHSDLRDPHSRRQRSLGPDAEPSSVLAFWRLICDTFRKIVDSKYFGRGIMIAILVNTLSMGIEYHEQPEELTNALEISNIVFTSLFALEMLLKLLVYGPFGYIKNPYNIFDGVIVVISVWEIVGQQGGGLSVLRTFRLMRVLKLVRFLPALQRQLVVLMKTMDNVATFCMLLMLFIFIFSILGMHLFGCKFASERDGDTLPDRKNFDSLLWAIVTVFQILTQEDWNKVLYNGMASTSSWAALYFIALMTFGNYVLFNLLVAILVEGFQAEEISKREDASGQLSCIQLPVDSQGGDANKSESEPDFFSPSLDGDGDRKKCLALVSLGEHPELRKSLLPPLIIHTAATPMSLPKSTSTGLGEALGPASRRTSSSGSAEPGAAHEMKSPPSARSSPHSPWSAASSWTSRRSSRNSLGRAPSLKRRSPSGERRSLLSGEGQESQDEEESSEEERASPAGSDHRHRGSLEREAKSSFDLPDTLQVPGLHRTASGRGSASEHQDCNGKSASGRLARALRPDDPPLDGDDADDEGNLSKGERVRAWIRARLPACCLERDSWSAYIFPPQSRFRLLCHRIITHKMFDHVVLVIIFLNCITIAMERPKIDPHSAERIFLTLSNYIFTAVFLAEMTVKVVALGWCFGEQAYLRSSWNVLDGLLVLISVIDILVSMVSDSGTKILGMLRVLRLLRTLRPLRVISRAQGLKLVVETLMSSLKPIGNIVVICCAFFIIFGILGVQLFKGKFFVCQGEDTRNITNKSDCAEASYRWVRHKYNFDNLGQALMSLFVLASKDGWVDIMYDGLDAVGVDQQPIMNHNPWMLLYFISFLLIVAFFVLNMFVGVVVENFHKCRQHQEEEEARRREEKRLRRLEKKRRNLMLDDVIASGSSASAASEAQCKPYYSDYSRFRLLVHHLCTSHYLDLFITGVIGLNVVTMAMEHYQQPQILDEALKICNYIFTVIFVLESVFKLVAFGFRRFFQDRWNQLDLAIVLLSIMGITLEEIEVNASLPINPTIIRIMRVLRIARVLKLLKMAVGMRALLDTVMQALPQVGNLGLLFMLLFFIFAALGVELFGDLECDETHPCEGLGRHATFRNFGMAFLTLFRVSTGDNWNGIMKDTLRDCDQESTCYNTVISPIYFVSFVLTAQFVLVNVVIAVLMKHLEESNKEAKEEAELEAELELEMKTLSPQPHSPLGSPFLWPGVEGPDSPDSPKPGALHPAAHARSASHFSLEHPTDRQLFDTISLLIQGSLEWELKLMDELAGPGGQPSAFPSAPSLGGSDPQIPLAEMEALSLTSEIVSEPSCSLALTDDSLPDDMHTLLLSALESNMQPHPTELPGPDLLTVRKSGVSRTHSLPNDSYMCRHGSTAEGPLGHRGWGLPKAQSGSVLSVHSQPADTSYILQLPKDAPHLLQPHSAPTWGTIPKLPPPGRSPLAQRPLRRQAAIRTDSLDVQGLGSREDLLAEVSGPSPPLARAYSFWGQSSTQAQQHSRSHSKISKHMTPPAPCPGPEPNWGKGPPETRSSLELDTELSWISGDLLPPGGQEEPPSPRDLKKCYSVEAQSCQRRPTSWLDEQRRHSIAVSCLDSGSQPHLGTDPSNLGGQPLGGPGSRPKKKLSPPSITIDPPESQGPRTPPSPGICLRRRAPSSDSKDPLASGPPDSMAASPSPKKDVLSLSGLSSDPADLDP

Row | Structure (SMILES) | inhibition [1] [%] | Selectivity ratio (HEK293 [2]) | inhibition [3] [%] | inhibition [4] [%] | Ratio IC50 (HEK293 [5])
1 | COC(=O)CC1c2ccccc2N=C(N(C)CCCCCN(C)C)N1c1ccc(-c2ccccc2)cc1 (stereo not drawn) | 57.9 | 3.7 | 24.4 | 90.1 | 
2 | COC(=O)CC1c2ccccc2N=C(NCCCCCN)N1c1ccc(-c2ccccc2)cc1 (stereo not drawn) |  | > 100 |  |  | 
3 | COCC(=O)O[C@]1(CCN(C)CCCc2nc3ccccc3[nH]2)CCc2cc(F)ccc2[C@@H]1C(C)C | 77.6 |  |  |  | 
4 | O=C(CC1c2ccccc2N=C(N2CCCCC2)N1c1ccccc1)NCc1ccccc1 (stereo not drawn) |  | 3.2 | 28.1 |  | 
5 | CN(C)CCCCCN(C)C1=Nc2ccccc2C(CC(=O)NCc2ccccc2)N1c1ccc(-c2ccccc2)cc1 (stereo not drawn) | 42.9 | 1.4 | 70.6 | 98 | 120
